Measured values taken from patent US20260199371A1, “COORDINATION COMPOUND, COMPOSITIONS, AND USES THEREOF FOR TREATING CANCERS” (HUEIYUAN BIOTECH LLC, priority 2023, published 2026).

What was measured:
LoVo-OXAR cells = conditions: single agent: compound (II) 2000 μg/ml or oxaliplatin 50 μg/ml, 72 hours
[1] = test system: ER stress markers in LoVo-parental cells; conditions: 500 μg/ml, 24 hours
Method: Western blot analysis was conducted using primary antibodies against protein kinase RNA-like endoplasmic reticulum kinase (PERK), phosphorylated PERK (p-PERK), alpha subunit of eukaryotic translation initiation factor 2 (eIF2α), phosphorylated eIF2α (p-eIF2α), activating transcription factor 4 (ATF4), proliferating cell nuclear antigen (PCNA), glyceraldehyde 3-phosphate dehydrogenase (GAPDH), and caspase 3 (San-ta Cruz Biotechnology Inc. Santa Cruz, California, USA). GAPDH was used as an internal control for the normalization of protein expression. […] Phosphorylated eIF2α has been known to inhibit the synthesis of various proteins participating in tumorigenesis.

143B cells = conditions: Transwell migration
Method: (§1) Transwell migration assay, as described in Example 5.1, was performed on 143B cells to investigate how the compound (II) would affect the migration ability of bone cancer cells.

[2] = test system: EMT markers in 143B cells; conditions: western blot
Method: as §1

[3] = test system: EMT markers in LoVo-parental cells; conditions: western blot, 24 hours
Source text: (§2) Vimentin and E-cadherin are molecular markers linked to tumor progression through their roles in EMT, which is a pathological process contributing to migration and invasion of cancer cells and tumor progression. Vimentin is a key component of intermediate filaments, which helps maintain cellular integrity and resistance to stress. E-cadherin plays a role in maintaining epithelial phenotypes by mediating contact inhibition when cells proliferate and reach confluence. To further investigate the influence of the compound (II) on EMT marker expression, western blotting, immunofluorescence detection, and quantitative real-time reverse transcription polymerase chain reaction (qRT-PCR) were performed in LoVo-parental and LoVo-OXAR cells treated with various doses of the compound (II) for 24 hours.
(§3) The cells after the indicated treatments were harvested and subject to western blot analysis using primary antibodies against vimentin, E-cadherin, and GAPDH (San-ta Cruz Biotechnology Inc. Santa Cruz, California, USA). GAPDH was used as an internal control.

[4] = test system: EMT markers in LoVo-OXAR cells; conditions: western blot, 24 hours
Source text: as §2, §3

CC(=O)[O-].CC(=O)[O-].CC(=O)[O-].CC(=O)[O-].CC(=O)[O-].CC(=O)[O-].O.O.O.O.O=[N+]([O-])[O-].[Cr+3].[Fe+3].[Fe+3].[OH-].[OH-] [compound (II)]
invasion rate of LoVo-OXAR cells (LoVo-OXAR cells): significantly decreased | caspase-3 cleavage [1]: activates caspase-3 cleavage | expression of ER stress markers, including PERK, p-eIF2α, and ATF4 [1]: enhancing the expression of ER stress markers | crawling (migration) of 143B cells (143B cells): inhibited by the compound (II) in a dose-dependent manner | E-cadherin expression [2]: increasing | vimentin expression [2]: significantly decreased | protein expression of E-cadherin [3]: increased | protein expression of vimentin [3]: significantly reduced | protein expression of E-cadherin [4]: increased | protein expression of vimentin [4]: significantly reduced
